Measurements reported in patent US20240158446A1, “CYCLIC COMPOUND HAVING SELECTIVE INHIBITORY ACTION ON KRAS OVER HRAS AND NRAS” (CHUGAI SEIYAKU KABUSHIKI KAISHA, priority 2021, published 2024).

Tests used:
[1] = target: GDP-bound NRAS wild-type protein (Homo sapiens, UniProt P01111); assay: Binding to NRAS by surface plasmon resonance (SPR), Single Cycle Kinetics; settings: SPR, GDP-bound NRAS wild-type protein vs GDP-bound KRAS wild-type protein
[2] = target: GDP-bound HRAS wild-type protein (Homo sapiens, UniProt P01112); assay: Binding to HRAS by surface plasmon resonance (SPR), Single Cycle Kinetics; settings: SPR, GDP-bound HRAS wild-type protein vs GDP-bound KRAS wild-type protein
Sequence of GDP-bound HRAS wild-type protein (P01112 whole entry): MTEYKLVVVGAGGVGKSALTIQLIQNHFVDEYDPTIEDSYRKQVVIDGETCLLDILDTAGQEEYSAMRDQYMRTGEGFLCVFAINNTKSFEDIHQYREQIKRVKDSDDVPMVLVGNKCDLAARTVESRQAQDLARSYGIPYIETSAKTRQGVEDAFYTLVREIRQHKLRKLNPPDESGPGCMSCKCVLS

Sequence of GDP-bound NRAS wild-type protein (P01111 whole entry): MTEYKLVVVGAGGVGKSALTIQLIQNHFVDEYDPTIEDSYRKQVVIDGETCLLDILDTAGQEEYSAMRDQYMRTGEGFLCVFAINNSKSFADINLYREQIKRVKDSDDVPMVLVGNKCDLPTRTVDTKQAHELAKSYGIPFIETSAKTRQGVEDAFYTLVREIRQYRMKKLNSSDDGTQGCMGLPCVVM

| Structure (SMILES) | NRAS/KRAS (ratio of KD value for NRAS to KD value for KRAS) [1] | HRAS/KRAS (ratio of KD value for HRAS to KD value for KRAS) [2] |
| --- | --- | --- |
| CCOC[C@H]1C(=O)N[C@@H]([C@@H](C)CC)C(=O)N(C)CC(=O)N(C)[C@H]2CCCCCN(C2=O)[C@@H](Cc2ccc(C(F)(F)F)cc2)C(=O)N(C)CC(=O)N[C@@H](CCc2cc(F)c(C(F)(F)F)c(F)c2)C(=O)N2C[C@H](OCC)C[C@H]2C(=O)NC2(CCC2)C(=O)N(C)[C@@H](C2CCCC2)C(=O)N(C)[C@H](C(=O)N2CCOCC2)CC(=O)N1C [PP0851] | B (a compound having 3 or more and less than 10 is denoted as B) | B (a compound having 3 or more and less than 10 is denoted as B) |
| CCO[C@@H]1C[C@H]2C(=O)NC3(CCC3)C(=O)N(C)[C@@H](C3CCCC3)C(=O)N(C)[C@H](C(=O)N3CCOCC3)CC(=O)N(C)[C@@H](COC3CC3)C(=O)N[C@@H]([C@@H](C)CC)C(=O)N(C)CC(=O)N(C)[C@H]3CCCCCN(C3=O)[C@@H](Cc3ccc(C(F)(F)F)cc3)C(=O)N(C)CC(=O)N[C@@H](CCc3cc(F)c(C(F)(F)F)c(F)c3)C(=O)N2C1 [PP0852] | B (a compound having 3 or more and less than 10 is denoted as B) | B (a compound having 3 or more and less than 10 is denoted as B) |
| CC[C@H](C)[C@@H]1NC(=O)[C@H](CC(C)C)N(C)C(=O)C[C@@H](C(=O)N2CCOCC2)N(C)C(=O)[C@H](C2CCCC2)N(C)C(=O)C2(CCC2)NC(=O)[C@@H]2C[C@@H](O)CN2C(=O)[C@H](CCc2cc(F)c(C(F)(F)F)c(F)c2)NC(=O)CN(C)C(=O)[C@H](Cc2ccc(C(F)(F)F)cc2)N2CCCCC[C@@H](C2=O)N(C)C(=O)CN(C)C1=O [PP0871] | B (a compound having 3 or more and less than 10 is denoted as B) | B (a compound having 3 or more and less than 10 is denoted as B) |
| CC[C@H](C)[C@@H]1NC(=O)[C@H](CC(C)C)N(C)C(=O)C[C@@H](C(=O)N2CCOCC2)N(C)C(=O)[C@H](C2CCCC2)N(C)C(=O)C2(CCC2)NC(=O)[C@@H]2[C@@H](O)CCN2C(=O)[C@H](CCc2cc(F)c(C(F)(F)F)c(F)c2)NC(=O)CN(C)C(=O)[C@H](Cc2ccc(C(F)(F)F)cc2)N2CCCCC[C@@H](C2=O)N(C)C(=O)CN(C)C1=O [PP0872] | A (a compound having 10 or more and less than 20 is denoted as A) | A (a compound having 10 or more and less than 20 is denoted as A) |
| CC[C@H](C)[C@@H]1NC(=O)[C@H](CC(C)C)N(C)C(=O)C[C@@H](C(=O)N2CCOCC2)N(C)C(=O)[C@H](C2CCCC2)N(C)C(=O)C2(CCC2)NC(=O)[C@@H]2[C@H](O)CCN2C(=O)[C@H](CCc2cc(F)c(C(F)(F)F)c(F)c2)NC(=O)CN(C)C(=O)[C@H](Cc2ccc(C(F)(F)F)cc2)N2CCCCC[C@@H](C2=O)N(C)C(=O)CN(C)C1=O [PP0873] | A (a compound having 10 or more and less than 20 is denoted as A) | B (a compound having 3 or more and less than 10 is denoted as B) |
| C=CCCC[C@H]1C(=O)N[C@@H]([C@@H](C)CC)C(=O)N(C)CC(=O)N(C)[C@H]2CCCCCN(C2=O)[C@@H](Cc2ccc(C(F)(F)F)cc2)C(=O)N(C)CC(=O)N[C@@H](CCc2cc(F)c(C(F)(F)F)c(F)c2)C(=O)N2C[C@H](OCC)C[C@H]2C(=O)N[C@](C)(CC=C)C(=O)N(C)[C@@H](C2CCCC2)C(=O)N(C)[C@H](C(=O)N2CCOCC2)CC(=O)N1C [PP0880] | B (a compound having 3 or more and less than 10 is denoted as B) | B (a compound having 3 or more and less than 10 is denoted as B) |
| CCCN1C(=O)CN(C)C(=O)CN(C)C(=O)[C@H]([C@@H](C)CC)NC(=O)[C@@H]2CCCCOc3ccc(cc3)C[C@H]1C(=O)N(C)CC(=O)N[C@@H](CCc1cc(F)c(C(F)(F)F)c(F)c1)C(=O)N1C[C@H](OCC)C[C@H]1C(=O)NC1(CCCC1)C(=O)N(C)[C@@H](C1CCCC1)C(=O)N(C)[C@H](C(=O)N(C)C)CC(=O)N2C [PP0894] | C (A compound having a KD ratio of 0.1 or more and less than 3 is denoted as C) | C (A compound having a KD ratio of 0.1 or more and less than 3 is denoted as C) |
| CCO[C@@H]1C[C@H]2C(=O)NC3(CCC3)C(=O)N(C)[C@@H](C3CCCC3)C(=O)N(C)[C@H](C(=O)N(C)C)CC(=O)N(C)[C@@H](CC)C(=O)N[C@@H]([C@@H](C)CC)C(=O)N(C)CC(=O)N(C)[C@H]3CCCCCN(C3=O)[C@@H](Cc3ccc4ccsc4c3)C(=O)N(C)CC(=O)N[C@@H](CCc3cc(F)c(C(F)(F)F)c(F)c3)C(=O)N2C1 [PP0910] | B (a compound having 3 or more and less than 10 is denoted as B) | B (a compound having 3 or more and less than 10 is denoted as B) |
| CCO[C@@H]1C[C@H]2C(=O)NC3(CCC3)C(=O)N(C)[C@@H](C3CCCC3)C(=O)N(CC)[C@H](C(=O)N3CCOCC3)CC(=O)N(C)[C@@H](CCC(Cl)Cl)C(=O)N[C@@H]([C@@H](C)CC)C(=O)N(C)CC(=O)N(C)[C@H]3CCCCCN(C3=O)[C@@H](Cc3ccc(C(F)(F)F)cc3)C(=O)N(C)CC(=O)N[C@@H](CCc3cc(F)c(C(F)(F)F)c(F)c3)C(=O)N2C1 [PP0949] | A (a compound having 10 or more and less than 20 is denoted as A) | A (a compound having 10 or more and less than 20 is denoted as A) |
| CC[C@H](C)[C@@H]1NC(=O)[C@H](CC(C)C)N(C)C(=O)C[C@@H](C(=O)N2CCOCC2)N(C)C(=O)[C@H](C2CCCC2)N(C)C(=O)C2(CCCC2)NC(=O)[C@@H]2CCCN2C(=O)[C@H](CCc2cc(F)c(C(F)(F)F)c(F)c2)NC(=O)CN(C)C(=O)[C@H](Cc2ccc(F)cc2)N2CCCCC[C@@H](C2=O)N(C)C(=O)CN(C)C1=O [PP0964] | B (a compound having 3 or more and less than 10 is denoted as B) | B (a compound having 3 or more and less than 10 is denoted as B) |
| CCO[C@@H]1C[C@H]2C(=O)NC3(CCCC3)C(=O)N(C)[C@@H](C3CCCC3)C(=O)N(C)[C@H](C(=O)N3CCOCC3)CC(=O)N(C)[C@@H](CC(C)C)C(=O)N[C@@H]([C@@H](C)CC)C(=O)N(C)CC(=O)N(C)[C@H]3CCCCCN(C3=O)[C@@H](Cc3ccc(F)cc3)C(=O)N(C)CC(=O)N[C@@H](CCc3ccc(C(F)(F)F)c(Cl)c3)C(=O)N2C1 [PP0965] | B (a compound having 3 or more and less than 10 is denoted as B) | B (a compound having 3 or more and less than 10 is denoted as B) |
| CCO[C@@H]1C[C@H]2C(=O)NC3(CCC3)C(=O)N(C)[C@@H](C3CCCC3)C(=O)N(C)[C@H](C(=O)N3CCOCC3)CC(=O)N(C)[C@@H](CC(C)C)C(=O)N[C@@H]([C@@H](C)CC)C(=O)N(C)CC(=O)N(C)[C@H]3CCCCCN(C3=O)[C@@H](Cc3ccc(F)cc3)C(=O)N(C)CC(=O)N[C@@H](CCc3ccc(C(F)(F)F)c(Cl)c3)C(=O)N2C1 [PP0968] | B (a compound having 3 or more and less than 10 is denoted as B) | B (a compound having 3 or more and less than 10 is denoted as B) |
| CC[C@H](C)[C@@H]1NC(=O)[C@H](CC(C)C)N(C)C(=O)C[C@@H](C(=O)N2CCOCC2)N(C)C(=O)[C@H](C2CCCC2)N(C)C(=O)C2(CCC2)NC(=O)[C@@H]2CC(F)(F)CN2C(=O)[C@H](CCc2ccc(C(F)(F)F)c(Cl)c2)NC(=O)CN(C)C(=O)[C@H](Cc2ccc(F)cc2)N2CCCCC[C@@H](C2=O)N(C)C(=O)CN(C)C1=O [PP0969] | B (a compound having 3 or more and less than 10 is denoted as B) | B (a compound having 3 or more and less than 10 is denoted as B) |
| CC[C@H](C)[C@@H]1NC(=O)[C@H](CC(C)C)N(C)C(=O)C[C@@H](C(=O)N(C)C)N(C)C(=O)[C@H](C2CCCC2)N(C)C(=O)C2(CCCC2)NC(=O)[C@@H]2CCCN2C(=O)[C@H](CCc2ccc(C(F)(F)F)c(Cl)c2)NC(=O)CN(C)C(=O)[C@H](Cc2ccc(F)cc2)N2CCCCC[C@@H](C2=O)N(C)C(=O)CN(C)C1=O [PP0971] | B (a compound having 3 or more and less than 10 is denoted as B) | B (a compound having 3 or more and less than 10 is denoted as B) |
| CCO[C@@H]1C[C@H]2C(=O)NC3(CCC3)C(=O)N(C)[C@@H](C3CCCC3)C(=O)N(C)[C@H](C(=O)N(C)C)CC(=O)N(C)[C@@H](CC(C)C)C(=O)N[C@@H]([C@@H](C)CC)C(=O)N(C)CC(=O)N(C)[C@H]3CCCCCN(C3=O)[C@@H](Cc3ccc(F)cc3)C(=O)N(C)CC(=O)N[C@@H](CCc3ccc(C(F)(F)F)c(Cl)c3)C(=O)N2C1 [PP0972] | B (a compound having 3 or more and less than 10 is denoted as B) | B (a compound having 3 or more and less than 10 is denoted as B) |
| CC[C@H](C)[C@@H]1NC(=O)[C@H](CC(C)C)N(C)C(=O)C[C@@H](C(=O)N2CCOCC2)N(C)C(=O)[C@H](C2CCCC2)N(C)C(=O)C2(CCC2)NC(=O)[C@@H]2C[C@@H](OCC3CC3)CN2C(=O)[C@H](CCc2cc(F)c(C(F)(F)F)c(F)c2)NC(=O)CN(C)C(=O)[C@H](Cc2ccc(C(F)(F)F)cc2)N2CCCC[C@@H](C2=O)N(C)C(=O)CN(C)C1=O [PP1000] | B (a compound having 3 or more and less than 10 is denoted as B) | B (a compound having 3 or more and less than 10 is denoted as B) |
| CC[C@H](C)[C@@H]1NC(=O)[C@H](CC(C)C)N(C)C(=O)C[C@@H](C(=O)N2CCOCC2)N(C)C(=O)[C@H](C2CCCC2)N(C)C(=O)C2(CCC2)NC(=O)[C@@H]2C[C@@H](OCC(F)F)CN2C(=O)[C@H](CCc2cc(F)c(C(F)(F)F)c(F)c2)NC(=O)CN(C)C(=O)[C@H](Cc2ccc(C(F)(F)F)cc2)N2CCCCC[C@@H](C2=O)N(C)C(=O)CN(C)C1=O [PP1006] | B (a compound having 3 or more and less than 10 is denoted as B) | B (a compound having 3 or more and less than 10 is denoted as B) |
